Peptide text beside a SMILES is read from it.
Key:
Format in all cases: biochemical
HDAC6 = target: T1, HDAC6 (Homo sapiens, UniProt Q9UBN7); experiment: HDAC6 inhibition, full IC50 measurement (Reaction Biology; fluorogenic p53 peptide RHKK(Ac)AMC); conditions: t1
T1 construct: purchased Reaction Biology Corporation (assay run by the CRO)
T1 sequence (Q9UBN7 1-1215): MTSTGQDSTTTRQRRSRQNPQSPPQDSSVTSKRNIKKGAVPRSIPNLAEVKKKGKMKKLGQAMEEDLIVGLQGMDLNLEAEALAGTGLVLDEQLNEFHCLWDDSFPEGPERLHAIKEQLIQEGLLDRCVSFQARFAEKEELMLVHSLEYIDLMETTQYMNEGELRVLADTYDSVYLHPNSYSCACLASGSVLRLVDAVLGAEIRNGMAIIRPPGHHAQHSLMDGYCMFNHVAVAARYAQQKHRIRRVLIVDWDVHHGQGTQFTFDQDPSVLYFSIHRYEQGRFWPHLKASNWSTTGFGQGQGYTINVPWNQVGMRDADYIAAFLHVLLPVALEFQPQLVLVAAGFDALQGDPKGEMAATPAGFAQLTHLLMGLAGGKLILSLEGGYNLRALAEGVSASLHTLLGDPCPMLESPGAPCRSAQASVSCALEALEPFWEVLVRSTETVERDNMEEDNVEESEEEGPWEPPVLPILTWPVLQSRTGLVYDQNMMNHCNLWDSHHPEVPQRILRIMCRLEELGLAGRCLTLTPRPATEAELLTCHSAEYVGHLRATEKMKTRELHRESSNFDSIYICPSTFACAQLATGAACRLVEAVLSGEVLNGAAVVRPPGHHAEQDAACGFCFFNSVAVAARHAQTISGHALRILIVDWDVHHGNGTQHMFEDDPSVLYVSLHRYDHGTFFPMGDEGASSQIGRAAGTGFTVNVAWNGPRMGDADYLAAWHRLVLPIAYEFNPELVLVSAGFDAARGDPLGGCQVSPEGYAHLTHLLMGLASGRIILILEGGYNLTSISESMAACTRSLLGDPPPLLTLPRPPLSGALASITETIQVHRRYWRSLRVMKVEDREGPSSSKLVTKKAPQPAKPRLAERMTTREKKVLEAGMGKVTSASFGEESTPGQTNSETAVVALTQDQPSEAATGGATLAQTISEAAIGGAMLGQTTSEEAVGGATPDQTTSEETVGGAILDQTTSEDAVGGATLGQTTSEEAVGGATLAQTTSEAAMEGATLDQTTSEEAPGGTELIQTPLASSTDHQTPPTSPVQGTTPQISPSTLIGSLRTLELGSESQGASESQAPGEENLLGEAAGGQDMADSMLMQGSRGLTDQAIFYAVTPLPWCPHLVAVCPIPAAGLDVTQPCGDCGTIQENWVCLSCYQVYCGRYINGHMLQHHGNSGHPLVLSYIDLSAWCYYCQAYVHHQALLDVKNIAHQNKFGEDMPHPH
Protocol: (§1) The assay was performed using 50 μM fluorogenic peptide from p53 residues 379-382 [RHKK(Ac)AMC] in a base reaction buffer of 50 mM Tris-HCl at pH 8.0, 137 mM NaCl, 2.7 mM KCl, 1 mM MgCl2, and freshly added 1 mg/ml BSA and 1% DMSO. Peptides were first dissolved in DMSO and then added to the reaction mixture with the enzyme using acoustic technique, enough to reach the desired concentration for that assay point. Peptide concentrations were calculated based on mass of lyophilized peptide and its molecular weight. The substrate was then added and incubated for 1 hour at 30 °C in a sealed container. After the incubation, developer was added to stop the reaction and develop color. Kinetic measurements were then performed for 20 min with Envision with 5 min intervals (Ex/Em = 360/460 nm). The endpoint after plateau was taken for IC50 measurement.
(§2) In cases where duplicate measures are used, average data is reported in the main text or Supplementary Tables.

HDAC2 [1] = target: T2, HDAC2 (Homo sapiens, UniProt Q92769); experiment: HDAC2 inhibition, full IC50 measurement (Reaction Biology; fluorogenic p53 peptide RHKK(Ac)AMC); conditions: t1
T2 construct: purchased Reaction Biology Corporation (assay run by the CRO)
T2 sequence (Q92769 whole entry): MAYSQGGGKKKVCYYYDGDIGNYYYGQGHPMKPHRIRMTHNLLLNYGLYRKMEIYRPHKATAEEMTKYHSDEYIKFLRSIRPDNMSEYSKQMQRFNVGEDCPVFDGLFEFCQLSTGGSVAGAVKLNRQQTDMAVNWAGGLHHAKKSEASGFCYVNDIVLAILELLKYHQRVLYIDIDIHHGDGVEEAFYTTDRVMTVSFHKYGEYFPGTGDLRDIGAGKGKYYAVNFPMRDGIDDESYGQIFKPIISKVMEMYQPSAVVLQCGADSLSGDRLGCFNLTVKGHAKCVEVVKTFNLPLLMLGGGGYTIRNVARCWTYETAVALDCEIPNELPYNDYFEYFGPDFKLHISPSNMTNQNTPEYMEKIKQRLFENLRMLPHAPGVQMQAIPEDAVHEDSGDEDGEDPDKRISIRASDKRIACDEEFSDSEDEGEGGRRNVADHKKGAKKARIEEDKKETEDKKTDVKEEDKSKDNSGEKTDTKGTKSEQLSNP
Protocol: as §1, §2

HDAC8 = target: T3, HDAC8 (Homo sapiens, UniProt Q9BY41); experiment: HDAC8 inhibition, full IC50 measurement (Reaction Biology; fluorogenic p53 peptide RHKK(Ac)AMC); conditions: t1/t2 replicates
T3 construct: purchased Reaction Biology Corporation (assay run by the CRO)
T3 sequence (Q9BY41 1-377): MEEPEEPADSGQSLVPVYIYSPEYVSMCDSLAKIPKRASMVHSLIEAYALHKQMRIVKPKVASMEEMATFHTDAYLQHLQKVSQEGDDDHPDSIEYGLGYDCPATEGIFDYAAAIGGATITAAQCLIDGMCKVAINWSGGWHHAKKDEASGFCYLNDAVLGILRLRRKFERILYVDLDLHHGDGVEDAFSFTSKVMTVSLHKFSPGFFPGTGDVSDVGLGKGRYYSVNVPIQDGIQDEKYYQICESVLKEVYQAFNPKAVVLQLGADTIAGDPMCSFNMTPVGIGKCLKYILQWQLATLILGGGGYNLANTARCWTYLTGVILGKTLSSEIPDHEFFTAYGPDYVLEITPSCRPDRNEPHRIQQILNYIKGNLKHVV
Protocol: as §1, §2

HDAC3 = target: T4, HDAC3 (Homo sapiens, UniProt O15379); experiment: HDAC3 inhibition, full IC50 measurement (Reaction Biology; fluorogenic p53 peptide RHKK(Ac)AMC); conditions: t1
T4 construct: purchased Reaction Biology Corporation (assay run by the CRO)
T4 sequence (O15379 whole entry): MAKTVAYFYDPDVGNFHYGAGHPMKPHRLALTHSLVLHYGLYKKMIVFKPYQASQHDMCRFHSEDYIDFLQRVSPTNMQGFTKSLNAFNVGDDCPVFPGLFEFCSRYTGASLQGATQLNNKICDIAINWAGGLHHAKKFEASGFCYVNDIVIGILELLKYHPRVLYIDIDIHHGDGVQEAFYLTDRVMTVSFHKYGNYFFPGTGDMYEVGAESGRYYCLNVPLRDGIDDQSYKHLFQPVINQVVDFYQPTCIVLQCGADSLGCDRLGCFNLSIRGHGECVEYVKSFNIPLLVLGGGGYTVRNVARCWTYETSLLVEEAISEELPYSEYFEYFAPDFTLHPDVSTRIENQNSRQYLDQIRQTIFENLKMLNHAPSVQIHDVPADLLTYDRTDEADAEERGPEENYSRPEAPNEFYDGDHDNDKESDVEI
T4 sequence (Q9Y618 395-489 partner limits assumed): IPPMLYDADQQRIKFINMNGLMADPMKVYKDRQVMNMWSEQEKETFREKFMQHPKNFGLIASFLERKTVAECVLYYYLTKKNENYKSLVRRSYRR
Protocol: as §1, §2

HDAC1 = target: T5, HDAC1 (Homo sapiens, UniProt Q13547); experiment: HDAC1 inhibition, full IC50 measurement (Reaction Biology; fluorogenic p53 peptide RHKK(Ac)AMC); conditions: t1/t2 replicates
T5 construct: purchased Reaction Biology Corporation (assay run by the CRO)
T5 sequence (Q13547 whole entry): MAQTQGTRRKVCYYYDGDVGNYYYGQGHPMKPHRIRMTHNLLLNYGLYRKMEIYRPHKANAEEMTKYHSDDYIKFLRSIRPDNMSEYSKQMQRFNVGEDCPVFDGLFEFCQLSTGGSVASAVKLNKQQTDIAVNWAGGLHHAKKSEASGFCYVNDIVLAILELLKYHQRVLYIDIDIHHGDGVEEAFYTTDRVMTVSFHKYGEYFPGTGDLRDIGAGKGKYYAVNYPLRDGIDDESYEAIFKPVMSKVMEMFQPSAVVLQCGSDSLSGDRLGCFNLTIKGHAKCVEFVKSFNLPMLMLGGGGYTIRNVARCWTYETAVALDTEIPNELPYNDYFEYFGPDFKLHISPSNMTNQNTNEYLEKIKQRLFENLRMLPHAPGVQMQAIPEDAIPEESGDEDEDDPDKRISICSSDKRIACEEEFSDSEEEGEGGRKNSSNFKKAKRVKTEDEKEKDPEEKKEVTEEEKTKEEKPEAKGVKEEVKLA
Protocol: as §1, §2

HDAC2 [2] = target: T2, HDAC2; experiment: Initial HDAC2 IC50 estimate (BPS Biosciences HDAC fluorogenic assay kit)
Protocol: Initial IC50 values were estimated using HDAC fluorogenic assay kits from BPS Biosciences (HDAC2, HDAC4, and HDAC6) following the protocol described in the kit. All the measures were performed in duplicates or triplicates. These measurements were done either on full range of concentrations (1:10 dilution from 1 µM to 100 pM) or on two concentrations only (20 nM and 200 nM) as an estimate of the range. […] Source Data are provided as a Source Data file.

[3] = HDAC2 activity (initial activity), Supplementary Dataset 2
[4] = HDAC2 activity (initial values for HDAC2 IC50), Supp. Table 4, rough estimates, for promising hits full measurements

NCCCC[C@@H]1NC(=O)[C@@H]2C[C@@H](O)CN2C(=O)[C@H](CC(N)=O)NC(=O)[C@H](CCCCCS)NC(=O)CNC(=O)[C@H](Cc2c[nH]c3ccccc23)NC(=O)[C@@H](CCCCN)NC(=O)[C@H](CCC(N)=O)NC1=O [des1.1.2, SHA-Asn-Hpr-Lys-Gln-dLys-Trp-Gly] (HELM PEPTIDE1{G.[O=C([C@H](CCCCCS)N[*:1])[*:2]].N.[Hyp].K.Q.[dK].W}$PEPTIDE1,PEPTIDE1,1:R1-8:R2$$$V2.0)
HDAC6 activity raw data (signal) (HDAC6; Conc. 1.00E-05 M): 10576 | HDAC6 activity raw data (signal) (HDAC6; Conc. 1.11E-06 M): 35009 | HDAC6 activity raw data (signal) (HDAC6; Conc. 1.23E-07 M): 150676 | HDAC6 activity raw data (signal) (HDAC6; Conc. 1.37E-08 M): 391207 | HDAC6 activity raw data (signal) (HDAC6; Conc. 1.52E-09 M): 551447 | HDAC6 activity raw data (signal) (HDAC6; Conc. 3.33E-06 M): 16992 | HDAC6 activity raw data (signal) (HDAC6; Conc. 3.70E-07 M): 72135 | HDAC6 activity raw data (signal) (HDAC6; Conc. 4.12E-08 M): 256776 | HDAC6 activity raw data (signal) (HDAC6; Conc. 4.57E-09 M): 497632 | HDAC6 activity raw data (signal) (HDAC6; Conc. 5.08E-10 M): 597163 | HDAC2 activity raw data (signal) (HDAC2 [1]; Conc. 1.00E-05 M): 101836 | HDAC2 activity raw data (signal) (HDAC2 [1]; Conc. 1.11E-06 M): 502310 | HDAC2 activity raw data (signal) (HDAC2 [1]; Conc. 1.23E-07 M): 836305 | HDAC2 activity raw data (signal) (HDAC2 [1]; Conc. 1.37E-08 M): 962979 | HDAC2 activity raw data (signal) (HDAC2 [1]; Conc. 1.52E-09 M): 1015460 | HDAC2 activity raw data (signal) (HDAC2 [1]; Conc. 3.33E-06 M): 281419 | HDAC2 activity raw data (signal) (HDAC2 [1]; Conc. 3.70E-07 M): 724069 | HDAC2 activity raw data (signal) (HDAC2 [1]; Conc. 4.12E-08 M): 1007771 | HDAC2 activity raw data (signal) (HDAC2 [1]; Conc. 4.57E-09 M): 1082856 | HDAC2 activity raw data (signal) (HDAC2 [1]; Conc. 5.08E-10 M): 1067045 | HDAC8 activity raw data (signal) (HDAC8; peptide conc. 1.00E-05 M): 21213376 | HDAC8 activity raw data (signal) (HDAC8; peptide conc. 1.11E-06 M): 37632401 | HDAC8 activity raw data (signal) (HDAC8; peptide conc. 1.23E-07 M): 42211938 | HDAC8 activity raw data (signal) (HDAC8; peptide conc. 1.37E-08 M): 48061782 | HDAC8 activity raw data (signal) (HDAC8; peptide conc. 1.52E-09 M): 52470288 | HDAC8 activity raw data (signal) (HDAC8; peptide conc. 3.33E-06 M): 31972513 | HDAC8 activity raw data (signal) (HDAC8; peptide conc. 3.70E-07 M): 43240252 | HDAC8 activity raw data (signal) (HDAC8; peptide conc. 4.12E-08 M): 47347914 | HDAC8 activity raw data (signal) (HDAC8; peptide conc. 4.57E-09 M): 49471078 | HDAC8 activity raw data (signal) (HDAC8; peptide conc. 5.08E-10 M): 54514203 | HDAC3 activity raw data (signal) (HDAC3; Conc. 1.00E-05 M): 22366 | HDAC3 activity raw data (signal) (HDAC3; Conc. 1.11E-06 M): 160146 | HDAC3 activity raw data (signal) (HDAC3; Conc. 1.23E-07 M): 601268 | HDAC3 activity raw data (signal) (HDAC3; Conc. 1.37E-08 M): 1087451 | HDAC3 activity raw data (signal) (HDAC3; Conc. 1.52E-09 M): 1408573 | HDAC3 activity raw data (signal) (HDAC3; Conc. 3.33E-06 M): 60464 | HDAC3 activity raw data (signal) (HDAC3; Conc. 3.70E-07 M): 337153 | HDAC3 activity raw data (signal) (HDAC3; Conc. 4.12E-08 M): 888364 | HDAC3 activity raw data (signal) (HDAC3; Conc. 4.57E-09 M): 1250419 | HDAC3 activity raw data (signal) (HDAC3; Conc. 5.08E-10 M): 1404307 | HDAC1 activity raw data (signal) (HDAC1; peptide conc. 1.00E-05 M): 76959 | HDAC1 activity raw data (signal) (HDAC1; peptide conc. 1.11E-06 M): 410794 | HDAC1 activity raw data (signal) (HDAC1; peptide conc. 1.23E-07 M): 886094 | HDAC1 activity raw data (signal) (HDAC1; peptide conc. 1.37E-08 M): 1048348 | HDAC1 activity raw data (signal) (HDAC1; peptide conc. 1.52E-09 M): 1178275 | HDAC1 activity raw data (signal) (HDAC1; peptide conc. 3.33E-06 M): 193861 | HDAC1 activity raw data (signal) (HDAC1; peptide conc. 3.70E-07 M): 669526 | HDAC1 activity raw data (signal) (HDAC1; peptide conc. 4.12E-08 M): 1039919 | HDAC1 activity raw data (signal) (HDAC1; peptide conc. 4.57E-09 M): 1106752 | HDAC1 activity raw data (signal) (HDAC1; peptide conc. 5.08E-10 M): 1177089

NCCCC[C@@H]1NC(=O)[C@@H]2CCCN2C(=O)[C@H](CC(N)=O)NC(=O)[C@H](CCCCCS)NC(=O)CNC(=O)[C@H](Cc2c[nH]c3ccccc23)NC(=O)[C@@H](CCCCN)NC(=O)[C@H](CN)NC1=O [des1.1.3, SHA-Asn-Pro-Lys-Dap-dLys-Trp-Gly] (HELM PEPTIDE1{[NC[C@H](N[*:1])C(=O)[*:2]].[dK].W.G.[O=C([C@H](CCCCCS)N[*:1])[*:2]].N.P.K}$PEPTIDE1,PEPTIDE1,1:R1-8:R2$$$V2.0)
IC50 (HDAC2 [2]; [3]): 100 nM | IC50 (HDAC2 [2]; [4]): 10 to 100 nM

NCCCC[C@@H]1NC(=O)[C@@H]2CCCN2C(=O)[C@H](CC(N)=O)NC(=O)[C@H](CCCCCS)NC(=O)CNC(=O)[C@H](Cc2c[nH]c3ccccc23)NC(=O)[C@@H](CCCCN)NC(=O)[C@H](CO)NC1=O [des1.1.4, SHA-Asn-Pro-Lys-Ser-dLys-Trp-Gly] (HELM PEPTIDE1{G.[O=C([C@H](CCCCCS)N[*:1])[*:2]].N.P.K.S.[dK].W}$PEPTIDE1,PEPTIDE1,1:R1-8:R2$$$V2.0)
IC50 (HDAC2 [2]; [3]): 100 nM | IC50 (HDAC2 [2]; [4]): 10 to 100 nM

From PMC8185074, “Anchor extension: a structure-guided approach to design cyclic peptides targeting enzyme active sites” (Nature Communications, 2021)
